# Results: patent US20100312139A1, “Method for Identifying Mammals at Risk for Elevated intracranial Pressure” (BOARD OF REGENTS OF THE UNIVERSITY OF TEXAS SYSTEM, priority 2009, published 2010)
# Tested on: TBI-associated cerebral edema, controlled cortical impact model
# Assay: Cerebral edema as percentage brain water content (wet-dry method) after controlled cortical impact brain injury
# Assay type: in vivo
# Conditions: rat, 400 mg/kg administered 30 minutes after cortical impact injury, measured 24 hr after injury, versus control animals
# Procedure: A number of studies have reported that blood-brain barrier compromise and cerebral edema are key contributors to the elevation of ICP. Penicillamine is a copper scavenger that is FDA approved for the treatment of Wilson's disease. Therefore penicillamine was used in this study to determine if sequestration of copper would restore TBI-associated BBB permeability and cerebral edema. […] BBB permeability was assessed by measuring the extravasation of Evans Blue dye as described in Zhao, et al., 2007 (Zhao, J., Moore, A. N., Redell, J. B. and Dash, P. K. 2007. Enhancing expression of Nrf2-driven genes protects the blood brain barrier after brain injury. J. Neurosci. 27, 10240-10248).
# Cerebral edema was assessed by determining the percentage brain water content using the wet-dry method as described previously (McIntosh, T. K., Soares, H., Thomas, M. and Cloherty, K. 1990. Development of regional cerebral oedema after lateral fluid-percussion brain injury in the rat. Acta Neurochir. Suppl (Wien.) 51, 263-264; Shohami, E., Novikov, M. and Mechoulam, R. 1993. A nonpsychotropic cannabinoid, HU-211, has cerebroprotective effects after closed head injury in the rat. J. Neurotrauma 10, 109-119). BBB permeability and cerebral edema were measured 24 hr after injury, in independent sets of animals.
smiles,measurement,value
"CC(C)(S)[C@@H](N)C(=O)O [penicillamine, Penicillamine]",effect on cerebral edema (percentage brain water content),did not have any effect
